Patent US5348941A, “Stabilizers for fibroblast growth factors” (Merck & Co., Inc., priority 1992, dated 1994)

Key:
aFGF = molecular target: T1, aFGF (Homo sapiens, UniProt P05230); assay: Copper-catalyzed oxidation of aFGF thiol groups; format: biochemical; settings: for Cu Oxidation (% SH Lost in 10 Mins): ligand 3X by weight, sodium sulfate 120 mM, tetrapolyphosphate 10 mM
T1 construct: The recombinant derived, 140 amino add form is the preferred form of aFGF; N-terminal methionine (MetHaFGF); made in house; host or cells: microbial cells (preferred embodiment)
Protocol: Copper-catalyzed oxidation of aFGF is carried out in the following manner. Acidic FGF (about 80 μg/ml) is incubated in a 20 mM Tris, 0.15M potassium chloride, pH 8 solution containing about 20 μM cuptic chloride for varying periods of time at room temperature. The reaction was terminated by the addition of 100 mM EDTA in the same buffer. A solution of about 0.7 ml of 0.25M Tris (about pH 8) containing about 2 mM EDTA and about 7 M GuHC1 is then added followed by about 35 μl of 4 mg/ml of DTNB (Sigma). Samples were incubated for 30 minutes, filtered through a 0.22 micron filter and the optical density measured at about 412 nm to determine sulfhydryl content, Riddles et al., Meth. Enzymol. 9:49-60 (1983). Relative standard deviation of the obtained values during time course experiments is 12%.
Acidic FGF contains three free cysteine residues at positions […], 83 and 117 in the polypeptide chain. […] It has also been shown that the copper catalyzed oxidative formation of a disulfide bond in the wild-type aFGF inactivates the protein in an in vitro mitogenic assay, Ortega et al., J. Biol. Chem. 266:5842-5846 (1991). Therefore, it was of interest to determine the extent to which heparin can stabilize aFGF against inactivation by oxidation. […] Samples contained 80 μg/ml aFGF with (a) 3X heparin by weight, (b) 0.1X heparin by weight and (c) buffer alone. As heparin was introduced and its concentration increased, the rate of copper-catalyzed oxidation decreased. For example, after 20 minutes, greater than 95% of the cysteine residues of aFGF are protected from oxidation with 3X heparin. FIG. 4B illustrates the fraction of remaining reactive thiol groups after a 10-minute incubation with cupric chloride as a function of heparin concentration.
Some aggregation of aFGF occurs under the conditions of these experiments presumably due to at least partial intermolecular disulfide formation. Thus, these measurements could simply be a measurement of the loss of solubility induced by copper association with aFGF. Several experiments, however, argue against this possibility. First, previous work has shown that at dilute protein concentration, copper does indeed catalyze oxidation of thiol groups of aFGF, Ortega et al., J. Biol. Chem. 266:5842-5846 (199 1 ). Second, as a control experiment, the copper-catalyzed oxidation of aFGF was carded out in a buffer containing 6 M GuHCl. Under these denaturing conditions, nearly 100% of the thiol groups in solution were lost after 10 minutes without visible aggregation. […] Regardless of the precise mechanism, copper addition is a distinct mechanism of inactivation compared to thermal stress.
Similar protection against oxidation experiments were carried out with other negatively charged compounds with an excess of ligand (3X by weight except for sodium sulfate at 120 mM and tetrapolyphosphate at 10 mM) added to aFGF before copper catalyzed oxidation. As shown in the second column of Table 2, all of these agents at least partially protect the cysteine residues of aFGF from oxidation.
^(b) Percentage of aFGF thiols remaining in solution after 10 min
incubation with cupric chloride. Experimental conditions are described in
FIG. 10. All samples contained ligand at 3× (by weight) except
sodium sulfate (120 mM) and tetrapolyphosphate (10 mM).

[1] = test system: BALB/c 3T3 A31 fibroblasts; assay: Fibroblast mitogenic assay ([3H]-thymidine incorporation into DNA); format: cell-based; design: Bioactivity (mitogenic activity of aFGF in the presence of ligand): unit not given here; settings: for Bioactivity (mitogenic activity of aFGF in the presence of ligand): complete absence of heparin, < = response did not plateau, * = cell death observed; for mitogenic activity of aFGF: absence of heparin
Protocol: Biological activity of the formulation of the instant invention is determined by a modification of the fibroblast mitogenic assay as described by Linemeyer et al. in European Patent Application, Publication No. 259,953. BALB/c 3T3 A31 fibroblasts (American Type Culture Collection) are plated at about 3×10^5 cells per 32 cm^2 wells in culture media containing about 10% heat-inactivated calf serum and incubated in about 7% CO2 (pH 7.35±0.05). The cells become fully quiescent by replacing the media with serum free media at about 6, about 24 hours and about 48 hours later. At about 53 hours after plating samples of the various formulations are added and about 0.12 μg of dexamethasone are added. At about 65 hours each well is supplemented with about 0.4 μCi of [methyl-^3 H]-thymidine (20 Ci/mmole, Dupont) and 0.6 μg of unlabeled thymidine (Sigma), and at 80 hours the cells are processed for determination of radiolabel incorporation into DNA. Each dose-response point is the average of at least quadruplicate determinations. Other cell types such vascular endothelial cells and corneal endothelial cells can be employed to determine in vitro mitogenicity. The procedures are described in detail by Thomas et al., Proc. Natl. Acad. Sci. USA 82:6409-6431 (1985).
^(d) Mitogenic activity of aFGF was measured in the presence of ligan
indicated in the complete absence of heparin.
*indicates cell death observed during assay.
Biological activity of the formulation of the instant invention was determined by a modification of the fibroblast mitogenic assay as described by Linemeyer et al. in European Patent Application, Publication No. 259,953. BALB/c 3T3 A31 fibroblasts (American Type Culture Collection) were plated at 3×10^5 cells per 32 cm^2 well in culture media containing about 10% heat-inactivated calf serum and incubated in 7% CO2 (pH 7.35±0.05). The cells become fully quiescent by replacing the media with serum free media at 6, 24 hours and 48 hours later. At 53 hours after plating samples of the various formulations were added and 0.12 μg of dexamethasone was added, at 65 hours each well was supplemented with 0.4 μCi of [methyl-^3 H]-thymidine (20 Ci/mmole, Dupont) and 0.6 μg of unlabeled thymidine (Sigma), and at 80 hours the cells were processed for determination of radiolabel incorporation into DNA. Each dose-response point is the average of at least quadruplicate determinations. Other cell types such vascular endothelial cells and corneal endothelial cells can be employed to determine in vitro mitogenidty. The procedures are described in detail by Thomas et al., Proc. Natl. Acad. Sci. USA 82:6409-6431 (1985).

T1 sequence (P05230 16-155 limits assumed): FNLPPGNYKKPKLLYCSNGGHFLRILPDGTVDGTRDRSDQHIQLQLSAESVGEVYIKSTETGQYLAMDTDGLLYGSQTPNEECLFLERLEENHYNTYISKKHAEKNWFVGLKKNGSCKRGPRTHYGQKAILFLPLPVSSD

Compound | Cu Oxidation (% SH Lost in 10 Mins) (aFGF) [%] | Bioactivity (mitogenic activity of aFGF in the presence of ligand) [1] | Cu Oxidation (% SH Lost in 10 Mins) (aFGF; listed as inositol hexaphosphate) | mitogenic activity of aFGF [1] | cysteine residues of aFGF protected from oxidation (aFGF; 3X heparin, 20 minutes) | stabilization against copper-catalyzed oxidation (aFGF; 10-minute incubation, 1/3 weight level of heparin)
dextran sulfate | 7 | 5.0 | – | – | – | –
O=P(O)(O)O[C@H]1[C@H](OP(=O)(O)O)[C@@H](OP(=O)(O)O)[C@H](OP(=O)(O)O)[C@@H](OP(=O)(O)O)[C@H]1OP(=O)(O)O [Inositol hexaphosphate, inositol hexaphosphate] | < 3 | < 0.6 | less than 3% | did not show any appreciable mitogenic activity | – | –
O=S(=O)(O)OC1C(OS(=O)(=O)O)C(OS(=O)(=O)O)C(OS(=O)(=O)O)C(OS(=O)(=O)O)C1OS(=O)(=O)O (stereo not shown) [Inositol hexasulfate, inositol hexasulfate] | 22 | 2.3 | – | – | – | –
heparin [reference compound] | < 3 | 4.2 | – | – | greater than 95% | stabilization essentially complete at 1/3 weight levels of heparin
O=P(O)(O)OP(=O)(O)OP(=O)(O)OP(=O)(O)O [Tetrapolyphosphate] | < 3 | < 0.25 | – | did not show any appreciable mitogenic activity | – | –
sulfated β-cyclodextrin | < 3 | 3.7 | – | – | – | –
low molecular weight heparin [Low MW heparin, reference compound] | < 3 | 4.0 | – | – | – | –
